Assay results as given in US20220193021A1 (priority 2019, published 2022).
Where a name gives a salt, the structure may show the parent alone.

Experiments:
Format in all cases: cell-based
[1] = tested on: influenza virus protein hemagglutinin 0 (HA0)
[2] = tested on: serine proteases (TMPRSS4, TMPRSS11D, TMPRSS2, and DESC1); assay: mRNA levels of serine proteases in human lung airway chips; conditions: 10 μM versus vehicle
[3] = tested on: serine proteases (TMPRSS4, TMPRSS11D, TMPRSS2, and DESC1); assay: Protein levels of serine proteases in human lung airway chips; conditions: 10 μM versus vehicle
Text: Protein levels of chips treated with nafamostat mesylate are relative to chips not treated with nafamostat mesylate.

influenza virus = tested on: influenza virus

SMILES: N=C(N)c1ccc2cc(OC(=O)c3ccc(N=C(N)N)cc3)ccc2c1 [nafamostat mesylate]
- effect on the cleavage of HA0 [1]: efficiently block
- effect on mRNA expression of serine proteases [2]: no effect
- effect on protein expression of serine proteases [3]: no effect

SMILES: CCOC(=O)C1=C[C@@H](OC(CC)CC)[C@H](NC(C)=O)[C@@H](N)C1 [oseltamivir]
- therapeutic window (influenza virus): approximately 48 hours
